This is an account of results in patent publication US9598440B2, “Inhibitors of IRAK4 activity” (MERCK SHARP & DOHME CORP., priority 2012, dated 2017).

IRAK4, sequence (Q9NWZ3 whole entry): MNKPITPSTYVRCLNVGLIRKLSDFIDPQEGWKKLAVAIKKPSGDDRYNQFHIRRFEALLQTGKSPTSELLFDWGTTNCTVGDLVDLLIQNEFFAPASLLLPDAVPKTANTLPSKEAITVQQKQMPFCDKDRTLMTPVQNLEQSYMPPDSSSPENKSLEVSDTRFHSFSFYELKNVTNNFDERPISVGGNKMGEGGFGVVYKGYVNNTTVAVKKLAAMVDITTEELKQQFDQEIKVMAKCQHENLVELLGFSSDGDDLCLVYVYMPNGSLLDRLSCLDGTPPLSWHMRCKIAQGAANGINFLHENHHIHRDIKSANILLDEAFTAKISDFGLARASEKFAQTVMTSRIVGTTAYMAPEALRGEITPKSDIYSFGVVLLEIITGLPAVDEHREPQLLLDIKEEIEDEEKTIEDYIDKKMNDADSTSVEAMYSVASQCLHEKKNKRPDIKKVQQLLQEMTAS

The experiment addresses IRAK4 (Homo sapiens (Human), UniProt Q9NWZ3). Briefly: Determination of IRAK4 kinase activity (IMAP fluorescence polarization, phosphorylation of fluorescent peptide substrate). In kind it is biochemical. The note with it: 0.5 nM GST tagged IRAK4, 100 nM peptide substrate RP7030, 100 μM ATP, 30 minutes at 25° C. In short, it runs like this:
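GST-tagged IRAK4 (0.5 nM) phosphorylated 100 nM fluorescent peptide substrate with 100 µM ATP in Tris-HCl pH 7.2, 1 mM MgCl2, 1 mM DTT, 0.01% Tween 20 for 30 min at 25 °C. Phosphorylation read by IMAP nanoparticle binding as fluorescence polarization increase.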
As a reminder, the IC50 is the concentration needed to halve the response being measured. Molecule `OC[C@H]1C[C@@H](Nc2nc(Nc3ccnc(OC4CC4)c3)ncc2-c2ccc3ccccc3n2)[C@H](O)[C@@H]1O` [Example 63, 2-((2-cyclopropoxypyridin-4-yl)amino)-6-(((1R,2S,3R,4R)-2,3-dihydroxy-4-(hydroxymethyl)cyclopentyl)amino)-5-(quinolin-2-yl)pyrimidine] registered a half-maximal inhibitory concentration (IC50) of 43 nM.
For `Nc1ncc(-c2nccs2)c(N[C@@H]2C[C@H](CO)[C@@H](O)[C@H]2O)n1` [Example 64, 2-amino-6-(((1R,2S,3R,4R)-2,3-dihydroxy-4-(hydroxymethyl)cyclopentyl)amino)-5-(thiazol-2-yl)pyrimidine] the value was 241 nM.
Next, `OC[C@H]1C[C@@H](Nc2nc(Nc3ccncc3)ncc2-c2nccs2)[C@H](O)[C@@H]1O` [Example 65, 6-(((1R,2S,3R,4R)-2,3-dihydroxy-4-(hydroxymethyl)cyclopentyl)amino)-2-(pyridin-4-ylamino)-5-(thiazol-2-yl)pyrimidine]: 260 nM; `CN(C)c1ccc(Nc2ncc(-c3nc4cnccc4s3)c(N[C@@H]3C[C@H](CO)[C@@H](O)[C@H]3O)n2)cc1` [Example 66, (1R,2S,3R,5R)-3-((2-((4-(dimethylamino)phenyl)amino)-5-(thiazolo[4,5-c]pyridin-2-yl)pyrimidin-4-yl)amino)-5-(hydroxymethyl)cyclopentane-1,2-diol]: 4 nM.
For `Cc1cc(Nc2ncc(-c3nc4cnccc4s3)c(N[C@@H]3C[C@H](CO)[C@@H](O)[C@H]3O)n2)cc(C)n1` [Example 67, (1R,2S,3R,5R)-3-((2-((2,6-dimethylpyridin-4-yl)amino)-5-(thiazolo[4,5-c]pyridin-2-yl)pyrimidin-4-yl)amino)-5-(hydroxymethyl)cyclopentane-1,2-diol] the value was 0.5 nM.
Consider `Cc1cc(Nc2ncc(-c3nc4ccncc4s3)c(N[C@@H]3C[C@H](CO)[C@@H](O)[C@H]3O)n2)cc(C)n1` [Example 68, (1R,2S,3R,5R)-3-((2-((2,6-dimethylpyridin-4-yl)amino)-5-(thiazolo[5,4-c]pyridin-2-yl)pyrimidin-4-yl)amino)-5-(hydroxymethyl)cyclopentane-1,2-diol], for which the IC50 came to 0.2 nM. This IC50 is about 2.5-fold lower than that of the molecule before.
Next, `Cc1cc(Nc2ncc(-c3nc4cnccc4s3)c(N[C@@H]3C[C@H](CO)[C@@H](O)[C@H]3O)n2)ccn1` [Example 69, (1S,2R,3R,5R)-3-(hydroxymethyl)-5-((2-((2-methylpyridin-4-yl)amino)-5-(thiazolo[4,5-c]pyridin-2-yl)pyrimidin-4-yl)amino)cyclopentane-1,2-diol]: 3 nM; `COc1cc(Nc2ncc(-c3nc4cnccc4s3)c(N[C@@H]3C[C@H](CO)[C@@H](O)[C@H]3O)n2)ccn1` [Example 71, 6-(((1R,2S,3R,4R)-2,3-dihydroxy-4-(hydroxymethyl)cyclopentyl)amino)-2-((2-methoxypyridin-4-yl)amino)-5-(thiazolo[4,5-c]pyridin-2-yl)pyrimidine]: 7 nM; `CN(C)c1cccc(Nc2ncc(-c3nc4cnccc4s3)c(N[C@@H]3C[C@H](CO)[C@@H](O)[C@H]3O)n2)c1` [Example 73, 6-(((1R,2S,3R,4R)-2,3-dihydroxy-4-(hydroxymethyl)cyclopentyl)amino)-2-((3-(dimethylamino)phenyl)amino)-5-(thiazolo[4,5-c]pyridin-2-yl)pyrimidine]: 12 nM.
For `OC[C@H]1C[C@@H](Nc2nc(Nc3cncnc3)ncc2-c2nc3ccncc3s2)[C@H](O)[C@@H]1O` [Example 74, 6-(((1R,2S,3R,4R)-2,3-dihydroxy-4-(hydroxymethyl)cyclopentyl)amino)-2-(pyrimidin-5-ylamino)-5-(thiazolo[5,4-c]pyridin-2-yl)pyrimidine] the value was 6 nM.
Next, `COc1cc(Nc2ncc(-c3nc4ccncc4s3)c(N[C@@H]3C[C@H](CO)[C@@H](O)[C@H]3O)n2)ccn1` [Example 75, 6-(((1R,2S,3R,4R)-2,3-dihydroxy-4-(hydroxymethyl)cyclopentyl)amino)-2-((2-methoxypyridin-4-yl)amino)-5-(thiazolo[5,4-c]pyridin-2-yl)pyrimidine]: 2 nM; `OC[C@H]1C[C@@H](Nc2nc(NC3CCC3)ncc2-c2nc3cnccc3s2)[C@H](O)[C@@H]1O` [Example 76, 2-(cyclobutylamino)-6-(((1R,2S,3R,4R)-2,3-dihydroxy-4-(hydroxymethyl)cyclopentyl)amino)-5-(thiazolo[4,5-c]pyridin-2-yl)pyrimidine]: 560 nM; `Cc1cc(Nc2ncc(-c3nc4ccncc4s3)c(N[C@@H]3C[C@H](CO)[C@@H](O)[C@H]3O)n2)ccn1` [Example 77, 6-(((1R,2S,3R,4R)-2,3-dihydroxy-4-(hydroxymethyl)cyclopentyl)amino)-2-((2-methylpyridin-4-yl)amino)-5-(thiazolo[5,4-c]pyridin-2-yl)pyrimidine]: 8 nM.
The molecule `OC[C@H]1C[C@@H](Nc2nc(Nc3cccnc3)ncc2-c2nc3ccncc3s2)[C@H](O)[C@@H]1O` [Example 78, 6-(((1R,2S,3R,4R)-2,3-dihydroxy-4-(hydroxymethyl)cyclopentyl)amino)-2-(pyridin-3-ylamino)-5-(thiazolo[5,4-c]pyridin-2-yl)pyrimidine] displayed a half-inhibitory concentration (IC50) of 13 nM.
On to `Cc1cc(Nc2ncc(-c3nc(-c4ccccc4)cs3)c(N[C@@H]3C[C@H](CO)[C@@H](O)[C@H]3O)n2)ccn1` [Example 79, 6-(((1R,2S,3R,4R)-2,3-dihydroxy-4-(hydroxymethyl)cyclopentyl)amino)-2-((2-methylpyridin-4-yl)amino)-5-(4-phenylthiazol-2-yl)pyrimidine], for which inhibition was half-maximal at 8 nM (IC50).
Next, `COc1cc(Nc2ncc(-c3nc(-c4ccccc4)cs3)c(N[C@@H]3C[C@H](CO)[C@@H](O)[C@H]3O)n2)ccn1` [Example 80, 6-(((1R,2S,3R,4R)-2,3-dihydroxy-4-(hydroxymethyl)cyclopentyl)amino)-2-((2-methoxypyridin-4-yl)amino)-5-(4-phenylthiazol-2-yl)pyrimidine]: 98 nM.
For `OC[C@H]1C[C@@H](Nc2nc(Nc3cncnc3)ncc2-c2nc(-c3ccccc3)cs2)[C@H](O)[C@@H]1O` [Example 81, 6-(((1R,2S,3R,4R)-2,3-dihydroxy-4-(hydroxymethyl)cyclopentyl)amino)-5-(4-phenylthiazol-2-yl)-2-(pyrimidin-5-ylamino)pyrimidine] the value was 94 nM; for `OC[C@H]1C[C@@H](Nc2nc(Nc3cccnc3)ncc2-c2nc(-c3ccccc3)cs2)[C@H](O)[C@@H]1O` [Example 82, 6-(((1R,2S,3R,4R)-2,3-dihydroxy-4-(hydroxymethyl)cyclopentyl)amino)-5-(4-phenyithiazol-2-yl)-2-(pyridin-3-ylamino)pyrimidine], 3210 nM; for `Nc1ncc(-c2nc3cccnc3s2)c(N[C@@H]2C[C@H](CO)[C@@H](O)[C@H]2O)n1` [Example 83, (1R,2S,3R,5R)-3-((2-amino-5-(thiazolo[5,4-b]pyridin-2-yl)pyrimidin-4-yl)amino)-5-(hydroxymethyl)cyclopentane-1,2-diol], 1.03 nM.
Next, `Cc1nc(Nc2ccnc(F)c2)nc(N[C@@H]2C[C@H](CO)[C@@H](O)[C@H]2O)c1-c1nc2ccccc2s1` [Example 86, (1R,2S,3R,5R)-3-((5-(benzo[d]thiazol-2-yl)-2-((2-fluoropyridin-4-yl)amino)-6-methylpyrimidin-4-yl)amino)-5-(hydroxymethyl)cyclopentane-1,2-diol]: 430 nM; `Cc1cc(Nc2nc(C)c(-c3nc4ccccc4s3)c(N[C@@H]3C[C@H](CO)[C@@H](O)[C@H]3O)n2)cc(C)n1` [Example 87, (1R,2S,3R,5R)-3-((5-(benzo[d]thiazol-2-yl)-2-((2,6-dimethylpyridin-4-yl)amino)-6-methylpyrimidin-4-yl)amino)-5-(hydroxymethyl)cyclopentane-1,2-diol]: 119 nM; `Cc1nc(Nc2ccc(Cl)cc2)nc(N[C@@H]2C[C@H](CO)[C@@H](O)[C@H]2O)c1-c1nc2ccccc2s1` [Example 88, (1R,2S,3R,5R)-3-((5-(benzo[d]thiazol-2-yl)-2-((4-chlorophenyl)amino)-6-methylpyrimidin-4-yl)amino)-5-(hydroxymethyl)cyclopentane-1,2-diol]: 6370 nM.
Take `Cc1nc(NCCCN2CCN(C)CC2)nc(N[C@@H]2C[C@H](CO)[C@@H](O)[C@H]2O)c1-c1nc2ccccc2s1` [Example 89, (1R,2S,3R,5R)-3-((5-(benzo[d]thiazol-2-yl)-6-methyl-2-((3-(4-methylpiperazin-1-yl)propyl)amino)pyrimidin-4-yl)amino)-5-(hydroxymethyl)cyclopentane-1,2-diol]: 6090 nM corresponded to half-maximal inhibition (IC50). This IC50 and that of the molecule before are within 1.5-fold of each other.
For `Cc1nc(NC2CC2)nc(N[C@@H]2C[C@H](CO)[C@@H](O)[C@H]2O)c1-c1nc2ccccc2s1` [Example 90, (1R,2S,3R,5R)-3-((5-(benzo[d]thiazol-2-yl)-2-(cyclopropylamino)-6-methylpyrimidin-4-yl)amino)-5-(hydroxymethyl)cyclopentane-1,2-diol] the value was 5030 nM.
As to `Cc1nc(N2CCC(N)CC2)nc(N[C@@H]2C[C@H](CO)[C@@H](O)[C@H]2O)c1-c1nc2ccccc2s1` [Example 92, (1R,2S,3R,5R)-3-((2-(4-aminopiperidin-1-yl)-5-(benzo[d]thiazol-2-yl)-6-methylpyrimidin-4-yl)amino)-5-(hydroxymethyl)cyclopentane-1,2-diol], the midpoint of inhibition, the IC50, lay at 11400 nM. This IC50 is about 2.3-fold higher than that of the molecule before.
For `Cc1nc(NCC2CCNCC2)nc(N[C@@H]2C[C@H](CO)[C@@H](O)[C@H]2O)c1-c1nc2ccccc2s1` [Example 93, (1R,2S,3R,5R)-3-((5-(benzo[d]thiazol-2-yl)-6-methyl-2-((piperidin-4-ylmethyl)amino)pyrimidin-4-yl)amino)-5-(hydroxymethyl)cyclopentane-1,2-diol] the value was 13100 nM.
